From publication PMC10850145, “Hormonal steroids induce multidrug resistance and stress response genes in Neisseria gonorrhoeae by binding to MtrR” (Nature Communications, 2024)
Several values for one entry are separate records, joined by “and”; a condition that tells them apart may be missing. Equal entries are not always repeated.

Tested on: FA19-rpoH-lacZ
Assay: Gonococcal growth in liquid culture (GC broth) with hormones (Fig S7)

## CC(=O)[C@H]1CC[C@H]2[C@@H]3CCC4=CC(=O)CC[C@]4(C)[C@H]3CC[C@]12C [Progesterone, progesterone]
0 hr, 0.1 µM
  growth curve reading after BLANKING: 0.013
  growth curve reading, raw replicates: 0.046
0 hr, 1 µM
  growth curve reading after BLANKING: 0.013
  growth curve reading, raw replicates: 0.046
0 hr, 10 µM
  growth curve reading after BLANKING: 0.013
  growth curve reading, raw replicates: 0.046
0 hr, 25 µM
  growth curve reading after BLANKING: 0.013
  growth curve reading, raw replicates: 0.046
0 hr, 50 µM
  growth curve reading after BLANKING: 0.013
  growth curve reading, raw replicates: 0.046
1.18 hr, 0.1 µM
  growth curve reading after BLANKING: 0.018
  growth curve reading, raw replicates: 0.051 and 0.052
1.18 hr, 1 µM
  growth curve reading after BLANKING: 0.020
  growth curve reading, raw replicates: 0.051 and 0.054
1.18 hr, 10 µM
  growth curve reading after BLANKING: 0.019
  growth curve reading, raw replicates: 0.051 and 0.052
1.18 hr, 25 µM
  growth curve reading after BLANKING: 0.018
  growth curve reading, raw replicates: 0.051 and 0.052
1.18 hr, 50 µM
  growth curve reading after BLANKING: 0.017
  growth curve reading, raw replicates: 0.049 and 0.051
2 hr, 0.1 µM
  growth curve reading after BLANKING: 0.029
  growth curve reading, raw replicates: 0.062
2 hr, 1 µM
  growth curve reading after BLANKING: 0.031
  growth curve reading, raw replicates: 0.063 and 0.066
2 hr, 10 µM
  growth curve reading after BLANKING: 0.029
  growth curve reading, raw replicates: 0.062
2 hr, 25 µM
  growth curve reading after BLANKING: 0.030
  growth curve reading, raw replicates: 0.062 and 0.065
2 hr, 50 µM
  growth curve reading after BLANKING: 0.026
  growth curve reading, raw replicates: 0.060 and 0.059
3 hr, 0.1 µM
  growth curve reading after BLANKING: 0.038
  growth curve reading, raw replicates: 0.072 and 0.070
3 hr, 1 µM
  growth curve reading after BLANKING: 0.046
  growth curve reading, raw replicates: 0.080 and 0.077
3 hr, 10 µM
  growth curve reading after BLANKING: 0.037
  growth curve reading, raw replicates: 0.070
3 hr, 25 µM
  growth curve reading after BLANKING: 0.046
  growth curve reading, raw replicates: 0.079
3 hr, 50 µM
  growth curve reading after BLANKING: 0.033
  growth curve reading, raw replicates: 0.067 and 0.065
4 hr, 0.1 µM
  growth curve reading after BLANKING: 0.053
  growth curve reading, raw replicates: 0.086
4 hr, 1 µM
  growth curve reading after BLANKING: 0.062
  growth curve reading, raw replicates: 0.093 and 0.096
4 hr, 10 µM
  growth curve reading after BLANKING: 0.050
  growth curve reading, raw replicates: 0.082 and 0.084
4 hr, 25 µM
  growth curve reading after BLANKING: 0.062
  growth curve reading, raw replicates: 0.096 and 0.093
4 hr, 50 µM
  growth curve reading after BLANKING: 0.044
  growth curve reading, raw replicates: 0.076 and 0.078
5 hr, 0.1 µM
  growth curve reading after BLANKING: 0.071
  growth curve reading, raw replicates: 0.103 and 0.104
5 hr, 1 µM
  growth curve reading after BLANKING: 0.079
  growth curve reading, raw replicates: 0.110 and 0.113
5 hr, 10 µM
  growth curve reading after BLANKING: 0.065
  growth curve reading, raw replicates: 0.096 and 0.099
5 hr, 25 µM
  growth curve reading after BLANKING: 0.078
  growth curve reading, raw replicates: 0.113 and 0.110
5 hr, 50 µM
  growth curve reading after BLANKING: 0.056
  growth curve reading, raw replicates: 0.087 and 0.090
5.95 hr, 0.1 µM
  growth curve reading after BLANKING: 0.089
  growth curve reading, raw replicates: 0.121 and 0.123
5.95 hr, 1 µM
  growth curve reading after BLANKING: 0.097
  growth curve reading, raw replicates: 0.130
5.95 hr, 10 µM
  growth curve reading after BLANKING: 0.080
  growth curve reading, raw replicates: 0.112 and 0.115
5.95 hr, 25 µM
  growth curve reading after BLANKING: 0.095
  growth curve reading, raw replicates: 0.130 and 0.126
5.95 hr, 50 µM
  growth curve reading after BLANKING: 0.070
  growth curve reading, raw replicates: 0.103 and 0.104
6.82 hr, 0.1 µM
  growth curve reading after BLANKING: 0.100
  growth curve reading, raw replicates: 0.130
